In the RepoRT retention time repository one finds LC retention time data, which are given here for 85 molecules.

The data set is described as follows: HILIC, Waters ACQUITY UPLC BEH Amide, 100 × 2.1 mm, 1.7 µm; A: water + 0.125% formic acid + 10 mM ammonium formate; B: 5% water + 95% acetonitrile + 0.125% formic acid + 10 mM ammonium formate; gradient (min/%B) 0/100 2/100 7.7/70 9.5/40 10.25/30 12.75/100 17/100. As to conditions: stereoisomer not certain.
Turning to `COc1ccc(C=O)cc1OC` [3,4-Dimethoxybenzaldehyde], the LC retention time amounted to 1.08 min.

`CCNC(C)Cc1ccc2c(c1)OCO2` (stereo not given) [3,4-Methylenedioxyethamphetamine]: the LC retention time was 2.94 min. Next, `NC(Cn1cccn1)C(=O)O` (stereo not given) [3-(1-Pyrazolyl)-alanine]: 7.54 min; `NC(CC(=O)O)c1ccc(O)cc1` (stereo not given) [3-Amino-3-(4-hydroxyphenyl)propionic acid]: 7.42 min.

As for `CC(CN)C(=O)O` (stereo not given) [3-Aminoisobutyric acid], the LC retention time was 7.4 min. Regarding `Nc1cc(CC(N)C(=O)O)ccc1O` (stereo not given) [3-Aminotyrosine], the LC retention time came to 8.06 min. Next, `NC(Cc1ccc(O)c(Cl)c1)C(=O)O` (stereo not given) [3-Chlorotyrosine]: 7.13 min; `O=c1ccn(C2OC(CO)CC2O)c(=O)[nH]1` (stereo not given) [3-Deoxyuridine]: 2.87 min. Next, `NC(N)=NCCC(=O)O` [3-Guanidinopropionic acid]: 8.15 min; `Nc1c(O)cccc1C(=O)O` [3-Hydroxyanthranilic acid]: 1.48 min. Next, `O=Cc1cccc(O)c1` [3-Hydroxybenzaldehyde]: 1.18 min. Regarding `CC(O)CC(=O)OC(CC(=O)[O-])C[N+](C)(C)C` (stereo not given) [3-Hydroxybutyrylcarnitine], the LC retention time was determined as 7.62 min.

Take `Nc1c(O)cccc1C(=O)CC(N)C(=O)O` (stereo not given) [3-Hydroxykynurenine]: the LC retention time was found to be 7.35 min.

Consider `O=C(O)Cc1cccc(O)c1` [3-Hydroxyphenylacetic acid], for which the LC retention time was found to be 1.45 min.

Take `NC(Cc1cccc(O)c1)C(=O)O` (stereo not given) [3-Hydroxyphenylalanine]: the LC retention time was 7.44 min. For `O=C(O)C1NCCC1O` (stereo not given) [3-Hydroxyproline], the LC retention time was determined as 8.17 min.

For `O=C(O)CCCCCCC(O)CC(=O)O` (stereo not given) [3-Hydroxysebacic acid], the LC retention time came to 2.55 min. Next, `CCC(O)CC(=O)O` (stereo not given) [3-Hydroxyvaleric acid]: 1.29 min.

Regarding `O=C(O)Cc1c[nH]c2ccccc12` [3-Indoleacetic acid], the LC retention time turned out to be 1.33 min. In the case of `N#CCc1c[nH]c2ccccc12` [3-Indoleacetonitrile] it was 8.02 min; in that of `O=C(O)CCc1c[nH]c2ccccc12` [3-Indolepropionic acid], 1.28 min. For the molecule `CC(C)=CC(=O)NCC(=O)O` [3-Methylcrotonylglycine], the LC retention time came out at 2.95 min. Next, `Cn1c(=N)ccn(C2OC(CO)C(O)C2O)c1=O` (stereo not given) [3-Methylcytidine]: 6.99 min; `Cn1cncc1CC(N)C(=O)O` (stereo not given) [3-Methylhistidine]: 9.41 min; `CC1C(=O)Nc2ccccc21` (stereo not given) [3-Methyloxyindole]: 1.07 min. In the case of `CSCCCN` [3-Methylthiopropylamine] it was 5.16 min.

Regarding `Cn1c(=O)ccn(C2OC(CO)C(O)C2O)c1=O` (stereo not given) [3-Methyluridine], the LC retention time is 1.12 min.

In the case of `NC(Cc1ccc(O)c([N+](=O)[O-])c1)C(=O)O` (stereo not given) [3-Nitrotyrosine], the LC retention time came to 6.88 min. As for `CCCCCC(O)CC` (stereo not given) [3-Octanol], the LC retention time was determined as 8.47 min. On to `O=C(O)CCP(=O)(O)O` [3-Phosphonopropionic acid], for which the LC retention time is 8.59 min. With `OCc1cccnc1` [3-Pyridinemthanol], the LC retention time was found to be 1.41 min. In the case of `C[Si](C)(C)CCC(=O)O` [3-Trimethylsilylpropionic acid] it was 5.64 min; in that of `NC(=O)NCCC(=O)O` [3-Ureidopropionic acid], 5.6 min. In the case of `CC(C)CCCC(C)C1CCC2C3CC=C4CC(OC(=O)NCCN(C)C)CCC4(C)C3CCC12C` (stereo not drawn) [3-beta-Cholest-5-en-3-yl [2-(dimethylamino)ethyl]carbamate] it was 2.34 min; in that of `O=c1c(-c2ccc(O)cc2)coc2cc(O)cc(O)c12` [4,5,7-Trihydroxyisoflavone], 1.27 min. With `CC(=O)NCCCC(=O)O` [4-Acetamidobutyric acid], the LC retention time was 2.26 min. In the case of `CC(=O)CCCC(=O)O` [4-Acetylbutyric acid] it was 1.24 min; in that of `Nc1ccc(C(=O)O)cc1` [4-Aminobenzoic acid], 7.49 min; in that of `NCC1CCC(C(=O)O)CC1` (stereo not given) [4-Aminomethylcyclohexanecarboxylic acid], 6.6 min. In the case of `Nc1ccc(O)cc1` [4-Aminophenol] it was 1.34 min; in that of `NC(N)=NCCCC(=O)O` [4-Guanidinobutyric acid], 7.72 min; in that of `CCCCCCc1ccc(O)cc1O` [4-Hexylresorcinol], 1.63 min. In the case of `CC(=O)CC(C)(C)O` [4-Hydroxy-4-methyl-2-pentanone] it was 4.88 min; in that of `Cc1cc(O)cc(=O)o1` [4-Hydroxy-6-methyl-2-pyrone], 1.47 min.

Consider `O=Cc1ccc(O)cc1` [4-Hydroxybenzaldehyde], for which the LC retention time is 1.18 min. Consider `O=C(O)CNC(=O)c1ccc(O)cc1` [4-Hydroxyhippuric acid], for which the LC retention time turned out to be 5.86 min. As for `N#CC(O)c1ccc(O)cc1` (stereo not given) [4-Hydroxymandelonitrile], the LC retention time was 2.63 min. Next, `CCCCCC(O)C=CC=O` (stereo not given) [4-Hydroxynonenal]: 1.07 min. With `O=c1cc[nH]c2ccccc12` [4-Hydroxyquinoline], the LC retention time stood at 1.69 min. As to `Cc1ncsc1CCO` [4-Methyl-5-thiazoleethanol], the LC retention time was determined as 1.21 min. In the case of `Cc1cc(=O)oc2cc(O)ccc12` [4-Methylumbelliferone] it was 1.22 min; in that of `CC(=O)Oc1ccc2c(C)cc(=O)oc2c1` [4-Methylumbelliferyl acetate], 1.06 min; in that of `O=[N+]([O-])c1cc[n+]([O-])c2ccccc12` [4-Nitroquinoline-N-oxide], 1.14 min. For `Cc1ncc(CO)c(C(=O)O)c1O` [4-Pyridoxic acid], the LC retention time was 2.66 min. Next, `O=C(O)c1ccnc2ccccc12` [4-Quinolinecarboxylic acid]: 4.58 min; `O=c1[nH]c(=S)ccn1C1OC(CO)C(O)C1O` (stereo not given) [4-Thiouridine]: 2.27 min. In the case of `C[N+](C)(C)CCCC(=O)O` [4-Trimethylammoniobutanoic acid] it was 7.66 min; in that of `CSCC1OC(n2cnc3c(N)ncnc32)C(O)C1O` (stereo not given) [5'-Methylthioadenosine], 2.49 min; in that of `COCC1OC(n2cc(C)c(=O)[nH]c2=O)CC1O` (stereo not given) [5'-O-Methylthymidine], 1.46 min. Turning to `CC1CNC(=O)NC1=O` (stereo not given) [5,6-Dihydro-5-methyluracil], the LC retention time came to 1.57 min.

For `O=C1CCNC(=O)N1` [5,6-Dihydrouracil], the LC retention time came out at 1.77 min. Next, `Cc1cc2nc[nH]c2cc1C` [5,6-Dimethylbenzimidazole]: 1.82 min; `NC(=O)c1[nH]cnc1N` [5-Aminoimidazole-4-carboxamide]: 4.18 min.

As to `NCCCCC(=O)O` [5-Aminovaleric acid], the LC retention time is 7.24 min. In the case of `CC(C)CCCC(C)C1CCC2C3C(O)C=C4CC(O)CCC4(C)C3CCC12C` (stereo not drawn) [5-Cholesten-3-beta-7-alpha-diol] it was 3.36 min; in that of `O=c1ncc(F)c[nH]1` [5-Fluro-2-pyrimidone], 1.77 min; in that of `Nc1[nH]c(=O)ncc1F` [5-Flurocytosine], 4.62 min.

Consider `O=C(O)Cc1c[nH]c2ccc(O)cc12` [5-Hydroxy-3-indoleacetic acid], for which the LC retention time amounted to 1.78 min. Next, `Nc1nc(=O)n(C2OC(CO)C(O)C2O)cc1CO` (stereo not given) [5-Hydroxymethylcytidine]: 7.54 min; `Nc1[nH]c(=O)ncc1CO` [5-Hydroxymethylcytosine]: 6.9 min; `NC(Cc1c[nH]c2ccc(O)cc12)C(=O)O` (stereo not given) [5-Hydroxytryptophan]: 7.48 min. Turning to `OCCc1c[nH]c2ccc(O)cc12` [5-Hydroxytryptophol], the LC retention time stood at 5.93 min. Regarding `COc1ccc2[nH]cc(CC(=O)O)c2c1` [5-Methoxy-3-indoleacetic acid], the LC retention time came out at 1.32 min. Next, `COc1c2ccoc2cc2oc(=O)ccc12` [5-Methoxypsoralen]: 1.07 min; `COc1ccc2[nH]cc(CCN)c2c1` [5-Methoxytryptamine]: 4.99 min. Next, `COc1ccc2[nH]cc(CCO)c2c1` [5-Methoxytryptophol]: 1.18 min; `COc1cn(C2OC(CO)C(O)C2O)c(=O)[nH]c1=O` (stereo not given) [5-Methoxyuridine]: 4.72 min. In the case of `Cc1cn(C2OC(CO)C(O)C2O)c(=S)[nH]c1=O` (stereo not given) [5-Methyl-2-thiouridine] it was 1.98 min. Consider `Cc1cn(C2OC(CO)CC2O)c(=O)[nH]c1=O` (stereo not given) [5-Methyl-3-deoxyuridine], for which the LC retention time was 2.6 min. In the case of `Cc1cn(C2OC(CO)C(O)C2O)c(=O)nc1N` (stereo not given) [5-Methylcytidine] it was 6.39 min. Next, `Cc1cnc(=O)[nH]c1N` [5-Methylcytosine]: 6.62 min; `Cc1cn(C2OC(CO)C(O)C2O)c(=O)[nH]c1=O` (stereo not given) [5-Methyluridine]: 4.19 min. Next, `CCCCCCCCCOc1ccc2[nH]cc(CCN)c2c1` [5-Nonyloxytryptamine]: 3.4 min; `Nc1ccc2cn[nH]c2c1` [6-Aminoindazole]: 1.26 min; `O=c1cnn(C2OC(CO)C(O)C2O)c(=O)[nH]1` (stereo not given) [6-Azuridine]: 4.31 min.
